Data set [1] has as its system iPS cell-derived cardiomyocytes. Nature of the data set: Viability of cardiomyocytes after treatment with the TAOK1 inhibitor and doxorubicin (PrestoBlue). In kind it is cell-based, human. Particulars: C43 final concentration 10 nM, added simultaneously with doxorubicin; measured 3 days later; FIG. 4. As for the experimental part:
The iPS cell-derived cardiomyocytes were seeded on the 96-well plate coated with the growth factor reduced matrigel, after 5 days or more from the seeding, the TAOK1 inhibitor C43 (MedChemExpress) and the doxorubicin were simultaneously added, and 3 days later, the cell viability was measured with SpectraMaxM2e using the PrestoBlue reagent.

Data set [2] shares this test system. As to the kind of experiment: Oxygen consumption measurement (Seahorse XF Cell Mito Stress Test). The class given is cell-based, human. Particulars: doxorubicin 1 μM for 3 hours vs 0 μM; FIG. 7. As to the method:
TAOK1 knock-out cells were obtained from the iPS cell-derived cardiomyocytes in a similar manner as in Test Example 2-1. The obtained cells were treated with the doxorubicin at 0 μM or 1 μM for 3 hours, and oxygen consumption was measured using a Seahorse XFe 96 Flux Analyzer (Agilent) and a Seahorse XF Cell Mito Stress Test Kit (Agilent).

In the case of `O=C(CNC(=O)c1ccc(-c2ccccc2)cc1)NC1CCCc2ccccc21` (centres unmarked) [Entry C43, N-[2-oxo-2-(1,2,3,4-tetrahydronaphthalen-1-ylamino)ethyl]biphenyl 4-carboxamide], the “cell viability (myocardial cell death caused by the doxorubicin)” value in data set [1] is listed as “inhibit the myocardial cell death caused by the doxorubicin”. Take `COc1cccc2c1C(=O)c1c(O)c3c(c(O)c1C2=O)C[C@@](O)(C(=O)CO)C[C@@H]3O[C@H]1C[C@H](N)[C@H](O)[C@H](C)O1` [doxorubicin]: in data set [2], the “oxygen consumption of the cardiomyocytes” value is “significantly reduced”.

The values above are taken from patent publication US20250354151A1, “INHIBITORY AGENT FOR MYOCARDIAL CELL DEATH, AND PROPHYLACTIC OR THERAPEUTIC AGENT FOR MYOCARDIAL DISORDERS OR HEART FAILURE” (KYOTO PREFECTURAL PUBLIC UNIVERSITY CORPORATION, priority 2022, published 2025).
